Assay results as given in US10772858B2, “Benzhydrol derivatives for the management of conditions related to hypoxia inducible factors” (GEORGIA STATE UNIVERSITY RESEARCH FOUNDATION, priority 2015, dated 2020).

Test system: LN229HRE-luc/lacZ cells (VEGF HRE, HIF-1 target)
Experiment: Inhibition of hypoxia-inducible gene expression driven by HRE-reporter construct (firefly luciferase) in glioma cells
Type: cell-based
Conditions: Homo sapiens, Glioma cell; firefly luciferase activity in LN229HRE-luc/LacZ cells, 1 hour pretreatment under normoxia, then hypoxia (1% O2); from dose-response curves
Method: Inhibition of Hypoxia-Inducible Gene Expression Driven by Exogenous HRE-Reporter Constructs in Glioma Cells
LN229HRE-luc/lacZ cells were generated by stably transfecting human LN229 glioma cells with a bidirectional reporter construct (pBIGL-V6R) in which the firefly luciferase and LacZ reporter genes are under the control of 6 head to tail tandem copies of the VEGF HRE (hypoxia-responsive element—endogenous HIF-1 target gene) in rightward orientation (clone LN229V6R#18; Hygro selection […]) as reported in Yin et al. Clinical Cancer Research, 2012, 1-11.
Cells were pretreated with different doses of test compounds or 1% DMSO (final concentration in media) vehicle control for 1 hour under normoxia (21% O2); then incubation continued under normoxia or hypoxia (1% O2) using a hypoxia incubator (Thermo Forma model 3130). Firefly luciferase activities in lysates of LN229HRE-luc/LacZ cells were measured with a Dual-Luciferase Reporter Assay System (Promega) in a 20/20 n Luminometer (Promega). The IC50 (μM) value for each individual compound was established from the dose-response curves.

## COc1ccc(C(O)c2ccc(CO[C@H]3CCOC3)cc2)cc1OC (stereo partly drawn) [3a, (3,4-Dimethoxyphenyl)(4-((((S)-tetrahydrofuran-3-yl)oxy)methyl)phenyl)methanol]
  IC50: 300 nM

## COc1ccc(C(O)c2ccc(CO[C@@H]3CCOC3)cc2)cc1OC (some centres unmarked) [3b]
  IC50: 3400 nM

## COc1ccc(C(O)c2ccc(COC3CCOC3)cc2)cc1OC (centres unmarked) [3c]
  IC50: 3400 nM

## COc1ccc(C(O)c2ccc(CO[C@H]3CCOC3)cn2)cc1OC (some centres unmarked) [3d]
  IC50: > 5000 nM

## COc1ccc(C(O)c2ccc(COc3cccnc3)cn2)cc1OC (centres unmarked) [3e]
  IC50: > 5000 nM

## COc1ccc([C@H](O)c2ccc(COC3CCOC3)cc2)cc1OC (some centres unmarked) [3f]
  IC50: > 5000 nM

## COc1ccc(C(O)c2ccc(COC3CCCCC3)cc2)cc1OC (centres unmarked) [3g]
  IC50: 400 nM

## COc1ccc(C(O)c2ccc(COC3CCCCC3)cc2)c(OC)c1 (centres unmarked) [3h]
  IC50: 680 nM

## CCCCOCc1ccc(C(O)c2ccc(OC)c(OC)c2)cc1 (centres unmarked) [3i, (4-(Butoxymethyl)phenyl)(3,4-dimethoxyphenyl)methanol]
  IC50: 500 nM

## CCCCOCc1ccc(C(O)c2ccc(OC)cc2OC)cc1 (centres unmarked) [3j]
  IC50: 630 nM

## CCOCc1ccc(C(O)c2ccc(OC)c(OC)c2)cc1 (centres unmarked) [3k]
  IC50: > 5000 nM

## CCOCc1ccc(C(O)c2ccc(OC)cc2)cc1 (centres unmarked) [3l]
  IC50: > 5000 nM

## CCCOCc1ccc(C(O)c2ccc(OC)c(OC)c2)cc1 (centres unmarked) [3m]
  IC50: 300 nM

## COc1ccc(C(O)c2ccc(COC(C)C)cc2)cc1OC (centres unmarked) [3n]
  IC50: > 5000 nM

## COc1ccc(C(O)c2ccc(COC3CCN(C(=O)OC(C)(C)C)CC3)cc2)cc1OC (centres unmarked) [3o]
  IC50: 890 nM

## CCCOCc1ccc(C(O)c2ccc(OC)c(OCc3ccccc3)c2)cc1 (centres unmarked) [3p]
  IC50: > 5000 nM

## CCCCOCc1ccc(C(O)c2cccc(OCc3ccccc3)c2)cc1 (centres unmarked) [3q]
  IC50: > 5000 nM

## CCCOCc1ccc(C(O)c2ccc(OCOC)cc2)cc1 (centres unmarked) [3r]
  IC50: > 5000 nM

## COc1ccc(C(O)c2ccc(COC3CN(C(=O)OC(C)(C)C)C3)cc2)cc1OC (centres unmarked) [3s]
  IC50: > 5000 nM

## COc1ccc(C(O)c2ccc(CO[C@@H]3CCN(C(=O)OC(C)(C)C)C3)cc2)cc1OC (some centres unmarked) [3t]
  IC50: > 5000 nM

## CCCOCc1ccc(C(O)c2ccc(OC)c(OCOC)c2)cc1 (centres unmarked) [3u]
  IC50: > 5000 nM

## CCCOCc1ccc(C(O)c2ccc(OC)c(OCCC)c2)cc1 (centres unmarked) [3v]
  IC50: 5000 nM

## CCCOCc1ccc(C(O)c2ccc(OCc3ccccc3)c(OCC)c2)cc1 (centres unmarked) [3w]
  IC50: > 5000 nM

## COc1ccc(C(O)c2cccc(COc3ccccc3)c2)cc1OC (centres unmarked) [6a]
  IC50: 1000 nM

## COc1ccc(C(O)c2cccc(COC3CCN(C(=O)OC(C)(C)C)CC3)c2)cc1OC (centres unmarked) [6b, Tert-butyl 4-((3-((3,4-dimethoxyphenyl)(hydroxy)methyl)benzyl)oxy)piperidine-1-carboxylate]
  IC50: 200 nM

## COc1ccc(C(O)c2cccc(COC3CCN(C(=O)OC(C)(C)C)CC3)c2)c(OC)c1 (centres unmarked) [6c]
  IC50: 550 nM

## OC(c1ccccc1)c1cccc(COc2cccc3ccccc23)c1 (centres unmarked) [6d]
  IC50: > 5000 nM

## COc1ccc(C(O)c2cccc(COc3cccc4ccccc34)c2)cc1OC (centres unmarked) [6e]
  IC50: 1830 nM

## CCOCc1cccc(C(O)c2ccc(OC)cc2)c1 (centres unmarked) [6f]
  IC50: > 5000 nM

## CCCCOCc1cccc(C(O)c2ccc(OC)cc2)c1 (centres unmarked) [6g]
  IC50: > 5000 nM

## CCCCOCc1cccc(C(O)c2ccc(OC)cc2OC)c1 (centres unmarked) [6h]
  IC50: 480 nM

## CCCOCc1cccc(C(O)c2ccc(OC)cc2OC)c1 (centres unmarked) [6i]
  IC50: 5000 nM

## CCCCOCc1cccc(C(O)c2ccc(OC)c(OC)c2)c1 (centres unmarked) [6j]
  IC50: 2450 nM

## CCCCOc1cccc(C(O)c2cccc(COCCC)c2)c1 (centres unmarked) [6k]
  IC50: 3800 nM

## CCCCOCc1cccc(C(O)c2ccc(OC)c(OCc3ccccc3)c2)c1 (centres unmarked) [6l]
  IC50: 2980 nM

## CCCCOCc1cccc(C(O)c2cccc(OCc3ccccc3)c2)c1 (centres unmarked) [6m]
  IC50: > 5000 nM

## CCCCOCc1cccc(C(O)c2ccc(OC)c(OCOC)c2)c1 (centres unmarked) [6n]
  IC50: 750 nM

## CCCCOCc1cccc(C(O)c2ccc(OC)c(OCCCC)c2)c1 (centres unmarked) [6o]
  IC50: 1000 nM

## CCCCOCc1cccc(C(O)c2ccc(OCc3ccccc3)c(OCC)c2)c1 (centres unmarked) [6p]
  IC50: 620 nM

## CCCOCc1ccccc1C(O)c1ccc(OC)c(OC)c1 (centres unmarked) [9a]
  IC50: > 5000 nM

## CCCCOCc1ccccc1C(O)c1ccc(OC)c(OCc2ccccc2)c1 (centres unmarked) [9b]
  IC50: > 5000 nM

## CCCCOCc1cccc(C(O)c2cccc(OCOC)c2)c1 (centres unmarked) [9c]
  IC50: > 5000 nM

## CCCCOCc1cccc(C(O)c2cccc(OCCCC)c2)c1 (centres unmarked) [9d]
  IC50: > 5000 nM

## C=CCOc1ccc(C(O)c2ccc(OC)c(OC)c2)cc1 (centres unmarked) [14a]
  IC50: > 5000 nM

## CCCCCOc1ccc(C(O)c2ccc(OC)c(OC)c2)cc1 (centres unmarked) [14b]
  IC50: 1900 nM

## COc1ccc(C(O)c2ccc(OCCC3CCN(C(=O)OC(C)(C)C)CC3)cc2)cc1OC (centres unmarked) [14c]
  IC50: 330 nM

## COc1ccc(C(O)c2ccc(OCc3cnco3)cn2)cc1OC (centres unmarked) [14d]
  IC50: > 5000 nM

## CCCCOc1ccc(C(O)c2ccc(OC)c(OC)c2)nc1 (centres unmarked) [15a]
  IC50: > 5000 nM

## CCCCOc1ccc(C(O)c2ccc(OC)cc2OC)nc1 (centres unmarked) [15b]
  IC50: > 5000 nM

## COc1ccc(C(O)c2ccc(OC(C)C)cn2)cc1OC (centres unmarked) [15c]
  IC50: > 5000 nM

## COc1ccc(C(O)c2ccc(OC(C)C)cn2)c(OC)c1 (centres unmarked) [15d]
  IC50: > 5000 nM

## COc1ccc(C(O)c2ccc(CN3CCOCC3)cn2)cc1OC (centres unmarked) [21a]
  IC50: > 5000 nM

## COc1ccc(C(O)c2ccc(CN3CCN(C(=O)OC(C)(C)C)CC3)cc2)cc1OC (centres unmarked) [21b]
  IC50: 1490 nM

## COc1ccc(C(O)c2ccc(CBr)cc2)cc1OC (centres unmarked) [21c]
  IC50: 1000 nM

## COc1ccc(C(O)c2ccccc2)cc1OC (centres unmarked) [24a]
  IC50: 2200 nM

## COc1ccc(C(O)c2ccc(OC)c(OC)c2)cc1OC [24b]
  IC50: > 5000 nM

## COc1ccc(OC)c(C(O)c2ccc(OC)c(OC)c2)c1 (centres unmarked) [24c]
  IC50: > 5000 nM

## COc1ccc(C(O)c2ccc(N3CCN(C)CC3)cc2)cc1OC (centres unmarked) [24d]
  IC50: > 5000 nM

## COc1ccc(C(O)c2ccc(C3CCCO3)cc2)cc1OC (centres unmarked) [24e]
  IC50: 5000 nM

## COc1ccc(C(O)c2ccc(-c3ccccc3)cc2)cc1OC (centres unmarked) [24f]
  IC50: > 5000 nM

## COc1ccc(C(O)c2ccc3c(c2)C=CC(C)(C)O3)cc1OC (centres unmarked) [26a]
  IC50: 600 nM

## COc1cccc(C(O)c2ccc3c(c2)C=CC(C)(C)O3)c1 (centres unmarked) [26b]
  IC50: > 5000 nM

## COc1ccc(C(O)c2cc3c(c(OC)c2)OC(C)(C)C=C3)cc1OC (centres unmarked) [26c]
  IC50: 3100 nM

## COc1ccc(C(O)c2ccc3c(n2)C=CC(C)(C)O3)cc1OC (centres unmarked) [26d]
  IC50: 2250 nM

## COc1ccc(C(O)c2cc3c(c(OC)c2)OC(C)(C)CC3)cc1OC (centres unmarked) [27c]
  IC50: 4200 nM

## COc1ccc(C(O)c2ccc3c(n2)CCC(C)(C)O3)cc1OC (centres unmarked) [27d]
  IC50: 2300 nM

## COc1ccc(C(O)c2ccc3c(c2)CCO3)cc1OC (centres unmarked) [29a]
  IC50: > 5000 nM

## COc1ccc(C(O)c2ccc3c(c2)OCCN3C)cc1OC (centres unmarked) [29b]
  IC50: > 5000 nM

## COc1ccc(C(O)c2ccc3ccccc3c2)cc1OC (centres unmarked) [29c]
  IC50: 1200 nM

## COc1ccc(C(O)c2ccc3c(c2)OCCO3)cc1OC (centres unmarked) [29d]
  IC50: 4180 nM

## COc1ccc(C(O)c2ccc3sc(C)cc3c2)cc1OC (centres unmarked) [29e]
  IC50: 1030 nM

## COc1ccc(C(O)c2ccc3sc(C)cc3c2)c(OC)c1 (centres unmarked) [29f]
  IC50: > 5000 nM

## CCCCCCOc1ccc2cc(C(O)c3ccc(OC)c(OC)c3)ccc2c1 (centres unmarked) [32a]
  IC50: 1800 nM

## CCCOc1ccc2cc(C(O)c3ccc(OC)c(OC)c3)ccc2c1 (centres unmarked) [32b]
  IC50: 2950 nM

## CCCCOc1ccc2cc(C(O)c3ccc(OC)c(OC)c3)ccc2c1 (centres unmarked) [32c]
  IC50: 3330 nM

## COc1ccc(C(O)c2ccc3cc(OC(C)C)ccc3c2)cc1OC (centres unmarked) [32d]
  IC50: 2620 nM

## COc1ccc(C(O)c2ccc(OC3CCOC3)cc2OC)cc1OC (centres unmarked) [35a]
  IC50: 4200 nM
